Data from publication PMC4627731, “Leishmanicidal Effect of Synthetic trans-Resveratrol Analogs” (PLoS ONE, 2015).

Tests used:
[1] = system: Leishmania amazonensis promastigotes; assay: Anti-promastigote activity (XTT); assay type: cell-based; conditions: Leishmania amazonensis, 48 h, L. amazonensis promastigotes, 48 h treatment, XTT; read-out: IC50 Promastigotes
Experimental: L. amazonensis (WHOM/BR/75/Josefa) promastigotes were cultured at 26°C in Schneider insect medium (Sigma), 10% fetal calf serum (Gibco-BRL, MD, US.) and 20 μg/mL of gentamycin (Schering-Plough, Rio de Janeiro, Brazil).
The leishmanicidal properties of the analogs were evaluated by measuring promastigotes’ mitochondrial activity using the XTT method with 2,3-bis-[2-methoxy-4-nitro-5-sulphophenyl]-2H-tetrazolium-5-carboxanilida, Sigma) as described previously. […] Sodium azide (10 μM) was used as a control, and the reaction product was read at 450 nm.

[2] = system: L. amazonensis intracellular amastigotes; assay: Anti-amastigote activity in infected macrophages; assay type: cell-based, Leishmania amazonensis
Experimental: Mice peritoneal macrophages obtained after stimulation with thioglycolate for 3 days were harvested in RPMI 1640 medium (LGC Biotecnologia, São Paulo, Brazil), 20 μg/mL of gentamycin and were plated onto 13 mm^2 coverslips inside 24-well plates for adherence for 2 h at 37°C, 5% CO2. Non-adherent cells were removed, and the macrophages were incubated overnight in RPMI supplemented with 10% FCS, as described above. Adhered macrophages were infected with L. amazonensis promastigotes (stationary growth phase) at a 10:1 parasite/macrophage ratio and incubated for 1 h at 34°C, 5% CO2. Free parasites were washed out with 0.01 M phosphate buffered saline (PBS), and the cultures maintained for 24 h at 37°C, 5% CO2. Infected macrophage cultures were treated with different concentrations of the analogs for an additional 24 h at 37°C, 5% CO2. Monolayers were then washed with PBS at 37°C, fixed in methanol, and stained with Giemsa. The number of amastigotes and the percentage of infected macrophages were determined by counting at least 200 cells in duplicate cultures. Endocytic indices were obtained by multiplying the percentage of infected macrophages by the mean number of amastigotes per infected macrophage. The results were expressed as the percentage of surviving macrophages based on endocytic indices of treated and untreated macrophages as reported previously.
The selectivity index was calculated as the ratio of murine peritoneal macrophages CC50 by L. amazonensis intracellular amastigotes IC50.

[3] = Cytotoxicity for host macrophages (XTT); assay type: cell-based; conditions: mouse, murine peritoneal macrophages
Experimental: After 3 h of incubation, the reaction product was read at 450 nm. The results are expressed in percentage of viable cells compared to untreated control.

[4] = system: murine peritoneal macrophages; assay: Nitric oxide production by macrophages (Griess); assay type: cell-based, mouse; conditions: uninfected macrophages stimulated with LPS; 33.2 μM pterostilbene, 45 μM piceatannol
Experimental: Thioglycolate-stimulated peritoneal macrophages were obtained as described above (10^6 cells/well in 24-well plate) and were activated with 1 μg/ml LPS (Sigma-Aldrich) or left untreated. […] The nitrite concentrations in the culture supernatants were determined using the Griess method. The reaction was read at 540 nm, and the concentration of NO2 ^- determined using a standard curve of sodium nitrite. The results are expressed as micromolar concentrations of nitrite.

[5] = Nitric oxide-trapping capacity, cell-free SNAP system; conditions: 1 mM SNAP, 6 h, rutin 1 mM, pterostilbene 33.2 μM, piceatannol 45 μM, polydatin 29 μM, oxyresveratrol 30.5 μM
Experimental: A cell-free system with an NO donor was used to test the capacity of resveratrol analogs to trap NO. SNAP (s-nitroso n-acetyl DL-penicillamine, Sigma) liberates nitric oxide in solution, which is then transformed to nitrite in the medium. The addition of a NO scavenger to the SNAP solution results in nitrite decay in the supernatant. […] One milimolar rutin (Sigma), a known NO scavenger, was used as a positive control for this assay. After 6 h of incubation, the nitrite concentration was determined using the Griess method. The results are expressed as the μM concentration of nitrite calculated in comparison with the sodium nitrite standard curve.

[6] = system: murine peritoneal macrophages; assay: Detection of reactive oxygen species (DHR 123); assay type: cell-based, mouse; conditions: compounds at amastigote IC50
Experimental: Mice peritoneal macrophages were adhered to 96-well opaque culture plates and then infected or not with L. amazonensis promastigotes. […] The cells were then stained with 50 μM dihydrorhodamine 123 (DHR 123, Life Technologies), and ROS was measured immediately using 500/526 nm excitation/emission wavelengths.

[7] = system: Leishmania amazonensis promastigotes; assay: Cell cycle analysis (PI, flow cytometry); assay type: cell-based; conditions: 48 h
Experimental: The cells were washed with PBS and fixed in 70% (v/v) ice-cold methanol/PBS for at least 1 h at 4°C. The fixed cells were washed once with PBS and then incubated in PBS supplemented with 10 μg/mL propidium iodide (PI) and 20 μg/mL RNAse at 37°C, 45 min, as reported. For each sample, 10000 events were collected on a BD FACScalibur (Becton and Dickson) and analyzed using CellQuest software.

[8] = system: Leishmania amazonensis promastigotes; assay: Mitochondrial membrane potential (JC-1); assay type: cell-based; conditions: 65 μM, 48 h, JC-1 red/green ratio
Experimental: Change in ΔΨm was measured using the mitochondria staining kit (Sigma-Aldrich).

[9] = system: Leishmania amazonensis promastigotes; assay: Annexin V binding assay; assay type: cell-based; conditions: 48 h; piceatannol 100 μM, miltefosine 30 μM
Experimental: Double staining for annexin V-fluorescein isothiocyanate (FITC) and PI was performed with the Annexin-V apoptosis detection kit (Molecular Probes). […] They were then washed twice in cold annexin V-buffer and centrifuged at 2760 x g for 10 min. Pellets were resuspended in 20 μL of annexin V FITC, and after 15 min of incubation in the dark, 480 μL of annexin V-buffer was added according to the manufacturer instructions. Annexin V-FITC labeling was recorded on a BD FACScalibur (Becton and Dickson) and analyzed using CellQuest software.

[10] = system: promastigotes of L. donovani; conditions: cited from earlier work
[11] = system: promastigotes of L. infantum; conditions: cited from earlier work
[12] = system: promastigotes of L. major; conditions: cited from earlier work
[13] = system: amastigotes of L. donovani in RAW macrophages; conditions: cited from earlier work
[14] = pterostilbene 17.7 μM, piceatannol 65 μM, polydatin 95.4 μM, oxyresveratrol 65 μM, mean ± SEM

Q: For Oc1cc(O)cc(/C=C/c2ccc(O)c(O)c2)c1 [Piceatannol, trans-3,4,3',5'-tetrahydroxystilbene], which IC50 [1] is on record?
A: 65 µM

Q: What about the IC50 ([2]; Leishmania amazonensis, Peritoneal macrophage, L. amazonensis in murine peritoneal macrophages, 24 h treatment) of the same molecule?
A: 45 µM

Q: What about the “SI (selectivity index; therapeutic index)” value ([2]; ratio of CC50 on murine peritoneal macrophages to IC50 on L. amazonensis intracellular amastigotes) of the same molecule?
A: >8.9

Q: And the CC50 at 24 h [3]?
A: > 400 µM

Q: What about the “Decrease of NO production” value [4] of the same molecule?
A: 5.0 fold

Q: What about the “Decrease of NO levels (NO scavenging)” value [5] of the same molecule?
A: did not reduce the levels of NO

Q: And the “Reduction of ROS levels” value ([6]; L. amazonensis infected macrophages)?
A: 5.8 fold

Q: And the “Reduction of ROS levels” value ([6]; infected and PMA-stimulated macrophages)?
A: 6.6 fold

Q: And the “Reduction of ROS levels” value ([6]; uninfected macrophages stimulated with 1 μg/mL PMA)?
A: 4.3 fold

Q: And the “Reduction of ROS levels” value ([6]; uninfected macrophages)?
A: 3.4 fold

Q: What about the “Decrease of cells in G0-G1 phase” value ([7]; 65 μM) of the same molecule?
A: 1.7 fold

Q: What about the “Increase of cells in Sub-G0 phase” value ([7]; 65 μM) of the same molecule?
A: 5 fold

Q: And the “% cells in different stages of the cell cycle: G0/G1” value [7, 14]?
A: 21.890 ± 0.840 %

Q: And the “% cells in different stages of the cell cycle: G2/M” value [7, 14]?
A: 14.273 ± 0.966%

Q: What about the “% cells in different stages of the cell cycle: S” value [7, 14] of the same molecule?
A: 8.167 ± 0.522%

Q: What about the “% cells in different stages of the cell cycle: Sub-G0” value [7, 14] of the same molecule?
A: 30.990 ± 1.544 %

Q: And the “% cells: Hyperploidies” value [7, 14]?
A: 24.947 ± 0.801%

Q: What about the “Reduction in the mitochondrial membrane potential (ΔΨm)” value [8] of the same molecule?
A: 2.8 fold

Q: What about the “Increase of annexin-V positive promastigotes in relation to untreated control” value [9] of the same molecule?
A: 2.5 fold

Q: And the IC50 [10]?
A: 17.2 µM

Q: And the “IC50 promastigotes of L. donovani” value [10]?
A: 4.2 µg/mL

Q: And the IC50 [11]?
A: 16 µM

Q: And the “IC50 promastigotes of L. infantum” value [11]?
A: 3.9 µg/mL

Q: And the IC50 [12]?
A: 23.3 µM

Q: What about the “IC50 promastigotes of L. major” value [12] of the same molecule?
A: 5.7 µg/mL

Q: And the IC50 [13]?
A: 30.3 µM

Q: What about the “IC50 amastigotes of L. donovani in RAW macrophages” value [13] of the same molecule?
A: 7.4 µg/mL
